# Assay: recombinant UMI read abundance after kanamycin selection (control-corrected) (log10(CPM+1)); higher = more efficient recombination; extreme values may be limits of the assay; sequences stand for … in AGTGCAGAGAAAATCGGCCAGTTTTCTCTGCCTGCAGTCCGCATGCCGTGGGACCCCTTGGGTTCTAACCTGTTGCCTAGATTTATGCAGCGGACTGCCTTTCTCCCAAAGTGATAAACCGG…AGGTTGGTTTCACT; site = the 11-nt donor
# Procedure, shortened: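 Values are reported as log10(CPM+1), obtained by converting sequencing counts to CPM, averaging replicates and scaling by control-derived factors. The counts came from recombinant UMIs amplified by PCR across the donor–target junction. These UMIs came from a pooled Escherichia coli screen of donor and donor-binding-loop pairs for the IS621 bridge recombinase, plated with IPTG (0.07 mM) plus kanamycin or left unselected, in two replicates each.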
# 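Further: IS621 bridge recombinase in Escherichia coli cells against a fixed T5 target plasmid.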
row,Sequence,recombinant UMI read abundance (log10)
1,CTGGAAACATGGACCGGTTTTCCCGGTAATCCGTATTTGCG (site CTGGAAACTGG),0
2,CTGGAAACATGGACCGGTTTTCCCGGTAATCCGTATTTGCG (site CTGGAAACTTG),1.72
3,CTGGAAACATGGACCGGTTTTCCCGGTAATCCGTATTTGGT (site CTGGAAACTAC),1.92
4,CTGGAATCATGGACCGGTTTTCCCGGTAATCCGTATTTGCA (site CTGGAAACTTG),1.56
5,CTGGAATCATGGACCGGTTTTCCCGGTAATCCGTATTTGCA (site CTGGAACCTTG),0
6,CTGGAATCATGGACCGGTTTTCCCGGTAATCCGTATTTGCA (site CTGGAAGCTTG),0
7,CTGGAATCATGGACCGGTTTTCCCGGTAATCCGTATTTGCA (site CTGGAATCTTG),2.19
8,CTGGCATCATGGACCGGTTTTCCCGGTAATCCGTATTTGGC (site CTGGCATCTGC),2.75
9,CTGGCGTCATGGACCGGTTTTCCCGGTAATCCGTATTTGAG (site CTGGCGTCTCT),0.929
10,CTGGGAACATGGACCGGTTTTCCCGGTAATCCGTATTTGCA (site CTGGAAACTTG),1.87
11,CTGGGAACATGGACCGGTTTTCCCGGTAATCCGTATTTGCA (site CTGGCAACTTG),0.789
12,CTGGGAACATGGACCGGTTTTCCCGGTAATCCGTATTTGCA (site CTGGGAACTTG),2.39
13,CTGGGAACATGGACCGGTTTTCCCGGTAATCCGTATTTGCA (site CTGGTAACTTG),0.262
14,CTGGGCGCATGGACCGGTTTTCCCGGTAATCCGTATTTGCA (site AATACGCCTAT),0.0174
15,CTGGTATCATGGACCGGTTTTCCCGGTAATCCGTATTTGCC (site CTAGTATCTGT),0
16,CTGGTATCATGGACCGGTTTTCCCGGTAATCCGTATTTGCC (site CTGGTATCTGG),0
17,CTGGTTACATGGACCGGTTTTCCCGGTAATCCGTATTTGGC (site CTGGTTACTGC),1.74
18,CTGTACGCATGGACCGGTTTTCCCGGTAATCCGTATTTGGT (site CTGTACGCTAC),1.26
19,CTGTAGCCATGGACCGGTTTTCCCGGTAATCCGTATTTGAT (site CTGTAGCCTAT),0.748
20,CTGTAGGCATGGACCGGTTTTCCCGGTAATCCGTATTTGGC (site ATGTAGGCTGC),0.626
21,CTGTAGGCATGGACCGGTTTTCCCGGTAATCCGTATTTGGC (site CTGTAGGCTGC),2.01
22,CTGTAGGCATGGACCGGTTTTCCCGGTAATCCGTATTTGGC (site GTGTAGGCTGC),0
23,CTGTAGGCATGGACCGGTTTTCCCGGTAATCCGTATTTGGC (site TTGTAGGCTGC),0
24,CTGTAGGCATGGACCGGTTTTCCCGGTAATCCGTATTTGGG (site CTGTAGGCTCC),0.27
25,CTGTAGTCATGGACCGGTTTTCCCGGTAATCCGTATTTGTC (site CTGTAGTCTGA),3.24

row,Sequence,recombinant UMI read abundance (log10)
1,CTGTCGCCATGGACCGGTTTTCCCGGTAATCCGTATTTGCG (site CTGTCGCCTCG),0.00856
2,CTGTGCGCATGGACCGGTTTTCCCGGTAATCCGTATTTGAC (site TCCCTGTCTTC),0.0087
3,CTGTTACCATGGACCGGTTTTCCCGGTAATCCGTATTTGCT (site CTGATACCTAG),0
4,CTGTTACCATGGACCGGTTTTCCCGGTAATCCGTATTTGCT (site CTGCTACCTAG),0.146
5,CTGTTACCATGGACCGGTTTTCCCGGTAATCCGTATTTGCT (site CTGGTACCTAG),0
6,CTGTTACCATGGACCGGTTTTCCCGGTAATCCGTATTTGCT (site CTGTTACCTAG),0
7,CTGTTTACATGGACCGGTTTTCCCGGTAATCCGTATTTGCT (site CAGTTTACTAG),0.405
8,CTGTTTACATGGACCGGTTTTCCCGGTAATCCGTATTTGCT (site CCGTTTACTAG),1.15
9,CTGTTTACATGGACCGGTTTTCCCGGTAATCCGTATTTGCT (site CGGTTTACTAG),0
10,CTGTTTACATGGACCGGTTTTCCCGGTAATCCGTATTTGCT (site CTGTTTACTAG),2.02
11,CTTAGCTCATGGACCGGTTTTCCCGGTAATCCGTATTTGCT (site CTTAGCTCTAG),0
12,CTTCAGCCATGGACCGGTTTTCCCGGTAATCCGTATTTGGA (site CTTCAGCCTTC),0
13,CTTCCCTCATGGACCGGTTTTCCCGGTAATCCGTATTTGTA (site CTTCACTCTTA),0.00365
14,CTTCCCTCATGGACCGGTTTTCCCGGTAATCCGTATTTGTA (site CTTCCCTCTTA),2.49
15,CTTCCCTCATGGACCGGTTTTCCCGGTAATCCGTATTTGTA (site CTTCGCTCTTA),0.00376
16,CTTCCCTCATGGACCGGTTTTCCCGGTAATCCGTATTTGTA (site CTTCTCTCTTA),0.434
17,CTTCTAACATGGACCGGTTTTCCCGGTAATCCGTATTTGCG (site CTTCTAACTCG),0.213
18,CTTCTCGCATGGACCGGTTTTCCCGGTAATCCGTATTTGTA (site CTTCTCACTTA),0.459
19,CTTCTCGCATGGACCGGTTTTCCCGGTAATCCGTATTTGTA (site CTTCTCCCTTA),0.0264
20,CTTCTCGCATGGACCGGTTTTCCCGGTAATCCGTATTTGTA (site CTTCTCGCTTA),1.29
21,CTTCTCGCATGGACCGGTTTTCCCGGTAATCCGTATTTGTA (site CTTCTCTCTTA),0.0056
22,CTTCTCTCATGGACCGGTTTTCCCGGTAATCCGTATTTGGA (site CTTCTCTCTTA),0.0983
23,CTTCTCTCATGGACCGGTTTTCCCGGTAATCCGTATTTGGA (site CTTCTCTCTTC),1.35
24,CTTCTCTCATGGACCGGTTTTCCCGGTAATCCGTATTTGGA (site CTTCTCTCTTG),0
25,CTTCTCTCATGGACCGGTTTTCCCGGTAATCCGTATTTGGA (site CTTCTCTCTTT),0.925

row,Sequence,recombinant UMI read abundance (log10)
1,CTTCTCTCATGGACCGGTTTTCCCGGTAATCCGTATTTGTC (site CTTCTCTCTAA),1.6
2,CTTCTCTCATGGACCGGTTTTCCCGGTAATCCGTATTTGTC (site CTTCTCTCTCA),0.0104
3,CTTCTCTCATGGACCGGTTTTCCCGGTAATCCGTATTTGTC (site CTTCTCTCTGA),2.45
4,CTTCTCTCATGGACCGGTTTTCCCGGTAATCCGTATTTGTC (site CTTCTCTCTTA),0.836
5,CTTGAAACATGGACCGGTTTTCCCGGTAATCCGTATTTGCA (site CTAGAAACTTG),1.31
6,CTTGAAACATGGACCGGTTTTCCCGGTAATCCGTATTTGCA (site CTCGAAACTTG),0.00453
7,CTTGAAACATGGACCGGTTTTCCCGGTAATCCGTATTTGCA (site CTGGAAACTTG),0.538
8,CTTGAAACATGGACCGGTTTTCCCGGTAATCCGTATTTGCA (site CTTGAAACTTG),2.07
9,CTTGACGCATGGACCGGTTTTCCCGGTAATCCGTATTTGGT (site CTTGACGCTAC),0.601
10,CTTGAGTCATGGACCGGTTTTCCCGGTAATCCGTATTTGAT (site CTTGAGTCTAT),2.13
11,CTTGAGTCATGGACCGGTTTTCCCGGTAATCCGTATTTGTT (site CTTGAGTCTAA),2.46
12,CTTGTAACATGGACCGGTTTTCCCGGTAATCCGTATTTGGC (site CTTGTAACTGC),0
13,CTTGTAGCATGGACCGGTTTTCCCGGTAATCCGTATTTGTC (site CTTGTAGCTGA),0.797
14,CTTGTCTCATGGACCGGTTTTCCCGGTAATCCGTATTTGTA (site CTTATCTCTTA),1.78
15,CTTGTCTCATGGACCGGTTTTCCCGGTAATCCGTATTTGTA (site CTTCTCTCTTA),0.856
16,CTTGTCTCATGGACCGGTTTTCCCGGTAATCCGTATTTGTA (site CTTGTCTCTTA),2.82
17,CTTGTCTCATGGACCGGTTTTCCCGGTAATCCGTATTTGTA (site CTTTTCTCTTA),0
18,CTTGTGTCATGGACCGGTTTTCCCGGTAATCCGTATTTGTG (site CTTGTGTCTCA),2.16
19,CTTGTTCCATGGACCGGTTTTCCCGGTAATCCGTATTTGGT (site ATTGTTCCTAC),0.0155
20,CTTGTTCCATGGACCGGTTTTCCCGGTAATCCGTATTTGGT (site CTTGTTCCTAC),0.00959
21,CTTGTTCCATGGACCGGTTTTCCCGGTAATCCGTATTTGGT (site GTTGTTCCTAC),0.0201
22,CTTGTTCCATGGACCGGTTTTCCCGGTAATCCGTATTTGGT (site TTTGTTCCTAC),0.0168
23,CTTTACGCATGGACCGGTTTTCCCGGTAATCCGTATTTGTA (site CTTTACGCTTA),0.0146
24,CTTTAGACATGGACCGGTTTTCCCGGTAATCCGTATTTGAG (site CATTAGACTCT),0.351
25,CTTTAGACATGGACCGGTTTTCCCGGTAATCCGTATTTGAG (site CCTTAGACTCT),0

# — the supplement of paper PMC11208160
